From PubChem BioAssay (NCI)
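Test compounds were applied to cells in 96-well plates for 48 hours at 5 doses. The concentration for 50% growth inhibition is given as GI50. TGI denotes the concentration required for complete inhibition of growth.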

How the values were obtained:
Assay in all cases: inhibition of tumour cell growth, NCI panel, 48 h
786-0 renal = tested on: 786-0 renal
A498 renal = tested on: A498 renal
A549 NSCLC = tested on: A549 NSCLC
ACHN renal = tested on: ACHN renal
CCRF-CEM leukemia = tested on: CCRF-CEM leukemia
EKVX NSCLC = tested on: EKVX NSCLC
HCC-2998 colon = tested on: HCC-2998 colon
HCT-116 colon = tested on: HCT-116 colon
HCT-15 colon = tested on: HCT-15 colon
HL-60(TB) leukemia = tested on: HL-60(TB) leukemia
HOP-62 NSCLC = tested on: HOP-62 NSCLC
HS 578T breast = tested on: HS 578T breast
HT29 colon = tested on: HT29 colon
K-562 leukemia = tested on: K-562 leukemia
KM12 colon = tested on: KM12 colon
MALME-3M melanoma = tested on: MALME-3M melanoma
MCF7 breast = tested on: MCF7 breast
MOLT-4 leukemia = tested on: MOLT-4 leukemia
NCI-H226 lung = tested on: NCI-H226 lung
NCI-H23 lung = tested on: NCI-H23 lung
NCI-H460 lung = tested on: NCI-H460 lung
NCI-H522 lung = tested on: NCI-H522 lung
OVCAR-3 ovarian = tested on: OVCAR-3 ovarian
OVCAR-5 ovarian = tested on: OVCAR-5 ovarian
OVCAR-8 ovarian = tested on: OVCAR-8 ovarian
PC-3 prostate = tested on: PC-3 prostate
RPMI-8226 leukemia = tested on: RPMI-8226 leukemia
SF-268 CNS = tested on: SF-268 CNS
SF-295 CNS = tested on: SF-295 CNS
SF-539 CNS = tested on: SF-539 CNS
SK-MEL-2 melanoma = tested on: SK-MEL-2 melanoma
SK-MEL-28 melanoma = tested on: SK-MEL-28 melanoma
SK-MEL-5 melanoma = tested on: SK-MEL-5 melanoma
SN12C renal = tested on: SN12C renal
SNB-75 CNS = tested on: SNB-75 CNS
SR leukemia = tested on: SR leukemia
SW-620 colon = tested on: SW-620 colon
TK-10 renal = tested on: TK-10 renal
U251 CNS = tested on: U251 CNS
UACC-257 melanoma = tested on: UACC-257 melanoma
DU-145 prostate = tested on: DU-145 prostate
HOP-92 NSCLC = tested on: HOP-92 NSCLC
IGROV1 ovarian = tested on: IGROV1 ovarian
LOX IMVI melanoma = tested on: LOX IMVI melanoma
M14 melanoma = tested on: M14 melanoma
NCI/ADR-RES ovarian = tested on: NCI/ADR-RES ovarian
OVCAR-4 ovarian = tested on: OVCAR-4 ovarian
SNB-19 CNS = tested on: SNB-19 CNS
CAKI-1 renal = tested on: CAKI-1 renal
COLO 205 colon = tested on: COLO 205 colon
MDA-MB-231 breast = tested on: MDA-MB-231 breast
SK-OV-3 ovarian = tested on: SK-OV-3 ovarian
UACC-62 melanoma = tested on: UACC-62 melanoma
UO-31 renal = tested on: UO-31 renal

SMILES: O=C(CCCn1cnc([N+](=O)[O-])n1)NCCCn1ccnc1[N+](=O)[O-]
- TGI (786-0 renal): > 100 µM
- TGI (A498 renal): > 100 µM
- TGI (A549 NSCLC): > 100 µM
- TGI (ACHN renal): > 100 µM
- TGI (CCRF-CEM leukemia): > 100 µM
- TGI (EKVX NSCLC): > 100 µM
- TGI (HCC-2998 colon): > 100 µM
- TGI (HCT-116 colon): > 100 µM
- TGI (HCT-15 colon): > 100 µM
- TGI (HL-60(TB) leukemia): > 100 µM
- TGI (HOP-62 NSCLC): > 100 µM
- TGI (HS 578T breast): > 100 µM
- TGI (HT29 colon): > 100 µM
- TGI (K-562 leukemia): > 100 µM
- TGI (KM12 colon): > 100 µM
- TGI (MALME-3M melanoma): > 100 µM
- TGI (MCF7 breast): > 100 µM
- TGI (MOLT-4 leukemia): > 100 µM
- TGI (NCI-H226 lung): > 100 µM
- TGI (NCI-H23 lung): > 100 µM
- TGI (NCI-H460 lung): > 100 µM
- TGI (NCI-H522 lung): > 100 µM
- TGI (OVCAR-3 ovarian): > 100 µM
- TGI (OVCAR-5 ovarian): > 100 µM
- TGI (OVCAR-8 ovarian): > 100 µM
- TGI (PC-3 prostate): > 100 µM
- TGI (RPMI-8226 leukemia): > 100 µM
- TGI (SF-268 CNS): > 100 µM
- TGI (SF-295 CNS): > 100 µM
- TGI (SF-539 CNS): > 100 µM
- TGI (SK-MEL-2 melanoma): > 100 µM
- TGI (SK-MEL-28 melanoma): > 100 µM
- TGI (SK-MEL-5 melanoma): > 100 µM
- TGI (SN12C renal): > 100 µM
- TGI (SNB-75 CNS): > 100 µM
- TGI (SR leukemia): > 100 µM
- TGI (SW-620 colon): > 100 µM
- TGI (TK-10 renal): > 100 µM
- TGI (U251 CNS): > 100 µM
- TGI (UACC-257 melanoma): > 100 µM

SMILES: O=c1c2ccccc2nc2n1CCc1c-2[nH]c2ccc(Br)cc12
- TGI (786-0 renal): > 100 µM
- TGI (A498 renal): > 100 µM
- TGI (A549 NSCLC): > 100 µM
- TGI (CCRF-CEM leukemia): > 100 µM
- TGI (DU-145 prostate): > 100 µM
- TGI (EKVX NSCLC): > 100 µM
- TGI (HCT-116 colon): > 100 µM
- TGI (HOP-62 NSCLC): > 100 µM
- TGI (HOP-92 NSCLC): > 100 µM
- TGI (HS 578T breast): > 100 µM
- TGI (HT29 colon): > 100 µM
- TGI (IGROV1 ovarian): > 100 µM
- TGI (K-562 leukemia): > 100 µM
- TGI (LOX IMVI melanoma): > 100 µM
- TGI (M14 melanoma): > 100 µM
- TGI (MALME-3M melanoma): > 100 µM
- TGI (MOLT-4 leukemia): > 100 µM
- TGI (NCI-H226 lung): > 100 µM
- TGI (NCI-H23 lung): > 100 µM
- TGI (NCI-H460 lung): > 100 µM
- TGI (NCI/ADR-RES ovarian): > 100 µM
- TGI (OVCAR-3 ovarian): > 100 µM
- TGI (OVCAR-4 ovarian): > 100 µM
- TGI (OVCAR-5 ovarian): > 100 µM
- TGI (OVCAR-8 ovarian): > 100 µM
- TGI (RPMI-8226 leukemia): > 100 µM
- TGI (SF-295 CNS): > 100 µM
- TGI (SK-MEL-28 melanoma): > 100 µM
- TGI (SK-MEL-5 melanoma): > 100 µM
- TGI (SNB-19 CNS): > 100 µM
- TGI (SR leukemia): > 100 µM
- TGI (SW-620 colon): > 100 µM
- TGI (UACC-257 melanoma): > 100 µM

SMILES: COc1cc(-c2n[nH]nc2-c2ccc3c(c2)OCCO3)cc(OC)c1OC
- GI50 (786-0 renal): < 0.01 µM
- TGI (786-0 renal): 13.5 µM
- GI50 (A498 renal): 0.0104 µM
- TGI (A498 renal): 1.5 µM
- GI50 (A549 NSCLC): 0.0229 µM
- TGI (A549 NSCLC): 22.6 µM
- GI50 (ACHN renal): < 0.01 µM
- TGI (ACHN renal): > 100 µM
- GI50 (CAKI-1 renal): < 0.01 µM
- TGI (CAKI-1 renal): > 100 µM
- GI50 (CCRF-CEM leukemia): 0.0337 µM
- TGI (CCRF-CEM leukemia): > 100 µM
- GI50 (COLO 205 colon): 0.0267 µM
- TGI (COLO 205 colon): 0.0774 µM
- GI50 (DU-145 prostate): 0.025 µM
- TGI (DU-145 prostate): > 100 µM
- GI50 (HCC-2998 colon): 0.0394 µM
- TGI (HCC-2998 colon): 17.5 µM
- GI50 (HCT-116 colon): < 0.01 µM
- TGI (HCT-116 colon): 0.811 µM
- GI50 (HCT-15 colon): < 0.01 µM
- TGI (HCT-15 colon): > 100 µM
- GI50 (HL-60(TB) leukemia): 0.0189 µM
- TGI (HL-60(TB) leukemia): 0.0824 µM
- GI50 (HOP-62 NSCLC): 0.0182 µM
- TGI (HOP-62 NSCLC): 19.3 µM
- GI50 (HOP-92 NSCLC): < 0.01 µM
- TGI (HOP-92 NSCLC): 0.543 µM
- GI50 (HS 578T breast): 0.668 µM
- TGI (HS 578T breast): 64.2 µM
- GI50 (HT29 colon): 0.0253 µM
- TGI (HT29 colon): 12.3 µM
- GI50 (IGROV1 ovarian): 0.0332 µM
- TGI (IGROV1 ovarian): 30.3 µM
- GI50 (K-562 leukemia): < 0.01 µM
- TGI (K-562 leukemia): > 100 µM
- GI50 (KM12 colon): < 0.01 µM
- TGI (KM12 colon): 11.2 µM
- GI50 (LOX IMVI melanoma): 0.0175 µM
- TGI (LOX IMVI melanoma): 37.8 µM
- GI50 (MALME-3M melanoma): 17.6 µM
- TGI (MALME-3M melanoma): 72.3 µM
- GI50 (MCF7 breast): < 0.01 µM
- TGI (MCF7 breast): 37.9 µM
- GI50 (MDA-MB-231 breast): 0.0444 µM
- TGI (MDA-MB-231 breast): > 100 µM
- GI50 (MOLT-4 leukemia): 0.0399 µM
- TGI (MOLT-4 leukemia): 11.6 µM
- GI50 (NCI-H226 lung): 0.0609 µM
- TGI (NCI-H226 lung): 64.1 µM
- GI50 (NCI-H23 lung): 0.048 µM
- TGI (NCI-H23 lung): 41.7 µM
- GI50 (NCI-H460 lung): 0.0246 µM
- TGI (NCI-H460 lung): 20 µM
- GI50 (NCI/ADR-RES ovarian): < 0.01 µM
- TGI (NCI/ADR-RES ovarian): 69.7 µM
- GI50 (OVCAR-3 ovarian): < 0.01 µM
- GI50 (OVCAR-4 ovarian): 0.0336 µM
- TGI (OVCAR-4 ovarian): 57.1 µM
- GI50 (OVCAR-5 ovarian): 2.18 µM
- TGI (OVCAR-5 ovarian): > 100 µM
- GI50 (OVCAR-8 ovarian): 0.0418 µM
- TGI (OVCAR-8 ovarian): 35 µM
- GI50 (PC-3 prostate): 0.0184 µM
- TGI (PC-3 prostate): 39.4 µM
- GI50 (RPMI-8226 leukemia): 0.0325 µM
- TGI (RPMI-8226 leukemia): 11 µM
- GI50 (SF-268 CNS): 0.0685 µM
- TGI (SF-268 CNS): > 100 µM
- GI50 (SF-295 CNS): < 0.01 µM
- TGI (SF-295 CNS): 42.8 µM
- GI50 (SK-MEL-2 melanoma): < 0.01 µM
- TGI (SK-MEL-2 melanoma): 18.1 µM
- GI50 (SK-MEL-28 melanoma): 2.88 µM
- TGI (SK-MEL-28 melanoma): 34.8 µM
- GI50 (SK-MEL-5 melanoma): < 0.01 µM
- TGI (SK-MEL-5 melanoma): 0.166 µM
- GI50 (SK-OV-3 ovarian): < 0.01 µM
- TGI (SK-OV-3 ovarian): 12.7 µM
- GI50 (SN12C renal): 0.133 µM
- TGI (SN12C renal): > 100 µM
- GI50 (SNB-19 CNS): 0.0294 µM
- TGI (SNB-19 CNS): > 100 µM
- GI50 (SNB-75 CNS): < 0.01 µM
- TGI (SNB-75 CNS): 21.9 µM
- GI50 (SR leukemia): < 0.01 µM
- TGI (SR leukemia): 23.9 µM
- GI50 (SW-620 colon): < 0.01 µM
- TGI (SW-620 colon): > 100 µM
- GI50 (TK-10 renal): 4.57 µM
- TGI (TK-10 renal): 34.6 µM
- GI50 (U251 CNS): 0.0201 µM
- TGI (U251 CNS): 22.7 µM
- GI50 (UACC-257 melanoma): 3.73 µM
- TGI (UACC-257 melanoma): 23.1 µM
- GI50 (UACC-62 melanoma): 2.28 µM
- TGI (UACC-62 melanoma): 21.2 µM
- GI50 (UO-31 renal): < 0.01 µM
- TGI (UO-31 renal): 24.6 µM
